The source made the active and inactive calls. No rule for the calls is given here. Some results are limits rather than exact numbers.

The test deals with NEDD8-conjugating enzyme Ubc12 (Homo sapiens) + NEDD8-activating enzyme E1 regulatory subunit (Homo sapiens) (UniProt P61081+Q13564). Nature of the test: inhibitors of CUL1 neddylation, potency, dose response, biochemical, TR-FRET (AID 652247). Particulars: in vitro CUL1 neddylation.
Sequence of NEDD8-conjugating enzyme Ubc12 (Homo sapiens) + NEDD8-activating enzyme E1 regulatory subunit (Homo sapiens) (P61081 whole entry, looked up): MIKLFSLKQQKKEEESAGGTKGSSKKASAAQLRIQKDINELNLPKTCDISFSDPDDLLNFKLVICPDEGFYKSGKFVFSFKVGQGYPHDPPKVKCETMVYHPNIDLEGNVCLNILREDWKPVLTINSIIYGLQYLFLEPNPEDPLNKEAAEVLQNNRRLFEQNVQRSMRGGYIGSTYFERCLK
Sequence of NEDD8-conjugating enzyme Ubc12 (Homo sapiens) + NEDD8-activating enzyme E1 regulatory subunit (Homo sapiens) (Q13564 whole entry, looked up): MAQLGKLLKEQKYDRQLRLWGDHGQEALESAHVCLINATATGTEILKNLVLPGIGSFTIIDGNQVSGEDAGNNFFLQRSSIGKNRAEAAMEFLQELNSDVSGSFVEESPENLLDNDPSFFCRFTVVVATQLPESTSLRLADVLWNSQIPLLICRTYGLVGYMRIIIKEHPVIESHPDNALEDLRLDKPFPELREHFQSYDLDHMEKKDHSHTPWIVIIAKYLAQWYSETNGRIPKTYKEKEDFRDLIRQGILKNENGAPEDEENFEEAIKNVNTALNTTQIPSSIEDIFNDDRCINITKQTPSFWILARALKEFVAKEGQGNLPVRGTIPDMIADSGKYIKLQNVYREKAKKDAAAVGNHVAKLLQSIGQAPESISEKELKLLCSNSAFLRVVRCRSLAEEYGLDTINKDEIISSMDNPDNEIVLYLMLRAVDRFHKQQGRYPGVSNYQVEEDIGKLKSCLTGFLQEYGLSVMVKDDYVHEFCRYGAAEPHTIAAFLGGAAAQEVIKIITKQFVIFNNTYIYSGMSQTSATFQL
Turning to `O=C1NC(=O)c2cc3ccccc3cc21`, the IC50 is > 100 µM (inactive).

As for `O=c1[nH]cnc2nc(-c3ccccc3)c(-c3ccccc3)nc12`, the IC50 result is “inactive”.

On to `COCCN(C(=O)COC(=O)c1cc2ccccc2cc1OC)c1c(N)n(Cc2ccccc2)c(=O)[nH]c1=O`, for which the IC50 entry was “inactive”.

`COc1ccc(OC)c(C=NNC(=O)c2ccccc2NS(=O)(=O)c2cccs2)c1`: the IC50 entry is “inactive”.

Consider `Cc1ccc(C(=O)N/C(=C\c2cccs2)c2nc3ccccc3[nH]2)cc1`, for which the IC50 result was “inactive”.

As for `CCOC(=O)C1=C(COCCN)NC(C)=C(C(=O)OC)C1c1ccccc1Cl` (stereo unspecified), the IC50 result was “inactive”.

As for `Cc1ccc(-c2cc(-c3ccc(C)cc3)[n+](-c3ccc(C(=O)[O-])cc3)c(-c3ccc(C)cc3)c2)cc1`, the IC50 entry was “inactive”.

Take `CC(=O)c1ccc(-c2ccc(C(=O)NCC(c3ccc(F)cc3)N3CCOCC3)o2)cc1` (stereo unspecified): the IC50 result is “inactive”.

For the compound `CC(NC(=O)C1=CC=CN2CCS(=O)(=O)N=C12)c1ccc(Cl)c(Cl)c1` (stereo unspecified), the IC50 entry was “inactive”.

As for `CN(C)CCNc1nc(-c2ccco2)c2c(c1C#N)CC(C)(C)OC2`, the IC50 result was “inactive”.

As to `c1cc2c3c(cccc3c1)-c1cnccc1-2`, the IC50 entry is “inactive”.

Regarding `Cn1c(=O)c(-c2ccccc2)nc2ccccc21`, the IC50 result is “inactive”.

Take `O=c1c[n+]([O-])c2ccccc2n1OCc1c(F)cccc1F`: the IC50 result is “inactive”.

Regarding `Cc1ccc2oc(-c3ccco3)cc(=O)c2c1`, the IC50 entry was “inactive”.

As for `CCn1c(=O)c(-c2ccccc2)c(O)c2ccccc21`, the IC50 is 17 µM.

Take `Cc1ccc2cc3cc(C(=O)NCCN4CCOCC4)oc3nc2c1`: the IC50 is 16.9 µM.

`CC(C(=O)NCC1CCCO1)N(C(=O)c1snc(C(N)=O)c1N)c1cccc(F)c1` (stereo unspecified): the IC50 entry is “inactive”.

Take `Cc1cc(=O)oc2cc(NC(=O)CN3C(=O)NC(C)(c4ccccc4)C3=O)ccc12` (stereo unspecified): the IC50 result was “inactive”.

On to `CCN(CC)c1ccc(/C=N/NC(=O)C2CC2)cc1`, for which the IC50 entry was “inactive”.

For the compound `CCCCN(C)C(=O)c1cc2cc3ccc(OC)cc3nc2o1`, the IC50 result is “inactive”.

With `COc1cccc(N(C(=O)c2snc(C(N)=O)c2N)C(C(=O)NCc2ccccc2)c2ccc(O)cc2)c1` (stereo unspecified), the IC50 entry is “inactive”.

On to `Cc1cc(C)cc(N(CC(=O)NC2CCCC2)C(=O)C2(C)CC(=O)N=C3C=CC=CN32)c1` (stereo unspecified), for which the IC50 entry is “inactive”.

With `CCOc1cc(/C=C/C(=O)Nc2ccc(C(=O)NCCN(CC)CC)cc2)ccc1OCC(C)C`, the IC50 entry is “inactive”.

For `COc1ccc(-c2cc(C(=O)N3CCN(c4ccccc4O)CC3)c3ccccc3n2)cc1OC`, the IC50 result is “inactive”.

For `COc1ccc(OCC(=O)N/N=C/c2ccc(N(C)C)cc2)cc1`, the IC50 result was “inactive”.

Turning to `CCOC(=O)C1CCCN(c2nc3ccccc3nc2NS(=O)(=O)c2ccc(C)cc2)C1` (stereo unspecified), the IC50 result was “inactive”.

Consider `Nc1c2c(=O)oc(-c3ccccc3)cc2nn1-c1ccccc1`, for which the IC50 result is “inactive”.

Consider `COC(=O)C1=C(C)NC2=C(C(=O)CCC2)C1c1ccc(-c2ccsc2C(=O)OC)o1` (stereo unspecified), for which the IC50 result was “inactive”.

On to `Cc1c(C(C)NC(=O)c2cc(COc3cccc4cnccc34)on2)cnn1C` (stereo unspecified), for which the IC50 entry was “inactive”.

With `Cc1nn(C)cc1CN(C)C(=O)c1cc2nc(-c3ccco3)cc(C(F)(F)F)n2n1`, the IC50 entry was “inactive”.

For `O=C(Nc1ccc2c(c1)OCO2)c1cc(-c2ccc(O)cc2)on1`, the IC50 entry was “inactive”.

As to `COc1ccc(CCNc2oc(-c3ccco3)nc2C#N)cc1`, the IC50 result was “inactive”.

On to `N#Cc1c2c(c(NCCOCCO)n3c1nc1ccccc13)CCCC2`, for which the IC50 entry is “inactive”.

With `Nc1nnc(-c2cc3ccccc3oc2=O)s1`, the IC50 is > 100 µM (inactive).

Consider `COCCNC(=O)COC(=O)c1cc(-c2ccc(OC)cc2)nc2ccccc12`, for which the IC50 entry was “inactive”.

With `COC(=O)c1sc2nc3c(cc2c1N)COC(C)(C)C3`, the IC50 entry is “inactive”.

Values taken from PubChem BioAssay AID652247 (Sanford-Burnham Center for Chemical Genomics, 2013).
